Columns and labels:
[1] = molecular target: T1, GST-tagged KRAS G12D (2-169) (Homo sapiens, UniProt P01116, G12D); test: Nucleotide exchange assay (NEA), HTRF of SOS-mediated GTP-DY-647P1 binding; assay type: biochemical; details: 5 nM GST-KRAS G12D, 20 nM SOScat, 150 nM GTP; compound 1 h at RT
T1 construct: GST-tagged KRAS^G12D (2-169, Reaction Biology, MSC-11-539); purchased Reaction Biology MSC-11-539 (KRAS G12D); MSC-11-502 (SOS1cat)
From the text: This activity is tightly regulated by GTPase activating proteins (GAPs) and guanine nucleotide exchange factors (GEFs). GEFs, such as SOS1/2, activate Ras proteins by exchanging GDP for GTP, thus returning Ras to its active conformation (Simanshu, Nissley, & McCormick, 2017). […] Homogenous time resolved fluorescence (HTRF) was used to detect SOS-mediated binding of a fluorescent GTP analog, GTP-DY-647P1 (Jena Biosciences NU-820-647P1) to GST-tagged KRAS^G12D (2-169, Reaction Biology, MSC-11-539).
GST-tagged KRAS^G12D (2-169) and anti-GST MAb Tb Cryptate Gold (CisBio 61GSTTLB) were diluted into assay buffer (20 mM HEPES, pH 7.3, 150 mM NaCl, 5 mM MgCl2, 0.05% BSA 0.0025% NP40, 1 mM DTT) to prepare a 2.5× donor solution. 5× compound was added to the protein mixture and incubated for 1 h at RT. 2.5× acceptor solution containing SOS1cat (564-1049, Reaction Biology MSC-11-502) and GTP-DY-647P1 were then added to the donor KRAS mixture such that the final concentration of the reaction contained 5 nM GST-tagged KRAS^G12D (2-169), 20 nM SOScat, and 150 nM GTP. The reaction was monitored using at RT with the Envision multimode plate reader (Ex/Em 337/665, […]) up to 90 minutes at 5 minute intervals. Data was blanked to reactions without SOS1 and % inhibition was calculated such that DMSO only=0% and blank=100%. Curve fitting was done using a 4 parameter fit. NEA KRAS G12D ID50 (uM) values of selected compounds are depicted in Table 2 with compounds having a value<0.01 uM as ++++; >0.01 uM to 0.1 uM as +++; >0.1 uM to 1 uM as ++; >1 uM to 20 uM as +; and >20 uM as NA.

KRAS G12D/RAF1 = molecular target: T2, KRAS G12D/RAF1 (Homo sapiens, UniProt P01116, G12D); test: Protein-protein interaction (PPI) HTRF assay KRAS G12D/RAF1; assay type: binding; details: KRAS G12D/RAF1, GppNHp-loaded KRAS; 30 minutes pre-incubation
T2 construct: KRAS (1-169) proteins were expressed in E. coli at 18° C; His6-MBP (N, cleaved yes); made in house; host or cells: E. coli
T2 sequence (P01116 1-169 isoform P01116-2 G12D): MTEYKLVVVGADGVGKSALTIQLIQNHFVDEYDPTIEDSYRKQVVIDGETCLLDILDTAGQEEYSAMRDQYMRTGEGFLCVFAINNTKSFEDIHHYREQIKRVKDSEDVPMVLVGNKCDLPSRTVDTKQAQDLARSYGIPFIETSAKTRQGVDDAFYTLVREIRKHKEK
Protocol: Biotinylated KRAS wt and KRAS G12DNV proteins were expressed and purified in conditions similar to those previously reported (Tran, et al., 2021) (Zhang, et al., 2020). Briefly, KRAS (1-169) proteins were expressed in E. coli at 18° C. with an upstream TEV cleavage site (ENLFYQS) followed an Avi tag sequence ([…]). KIRAS expression constructs contained both a His6 and maltose-binding protein (MBP) tags at the N-terminus for Ni-NTA column purification prior to overnight TEV cleavage and MBP column purification. The avi-tagged NRAS expression construct contained both a His6 tag and SUMO cleavage sige at the N-terminus for Ni-NTA column purification followed by His-ULP1 digestion overnight. All avi-tagged RAS proteins were dialyzed into buffer containing ATP, biotin, and BirA followed by purification over a second Ni-NTA column and then run over a size exclusion HiLoad™ 26/600 Superdex™ column in 20 mM HEPES, pH 7.5, 300 mM NaCl, 5 mM MgCl2, and 1 mM TCEP. Fractions containing the protein of interest were pooled, concentrated, and confirmed by intact mass spectrometry. To prepare ‘GTP’ loaded KRAS and NRAS, biotinylated KRAS or NRAS was nucleotide exchanged from GDP-bound protein to GppNHp-bound (Jena Biosciences, NU-401-50) protein in the presence of alkaline phosphatase and excess GppNHp as previously described and the resulting nucleotide content was confirmed by HPLC reverse phase analytical chromatography (Donohue, et al., 2019) (Tran, et al., 2021).
His-tagged RAF1 (52-131) was similarly expressed in E. coli at 18° C. overnight with an upstream TEV cleavage site. His-tagged RAF1 expression construct contained both a His6 and MBP tags at the N-terminus for Ni-NTA column purification followed by MBP-tagged TEV digestion overnight. RAF1 protein samples were further purified over a MBP column followed by a Ni-NTA column and a second MBP column. The fractions containing the protein of interest were pooled, concentrated, and further purified over a HiLoad™ 16/600 Superdex™ 75 pg size exclusion column into 20 mM HEPES, pH8.0, 200 mM NaCl, 5 mM TCEP.
When RAS proteins are in the active GTP-bound conformation, they bind the effector protein RAF1 at the N-terminus Ras-binding domain (RBD, residues 52-131) (Tran, et al., 2021). Homogenous time resolved fluorescence (HTRF) was used to monitor the interaction between wt or mutant KRAS and RAF1 or wt NRAS and RAFT. Compounds were assayed in the presence of KRAS G12D/V and RAF1 versus wt KRAS to assess activity against mutant and w.t. KRAS. Similarly, compounds were then assayed in the presence of w.t. NRAS and RAF1 to assess RAS isoform selectivity. In all assay formats, His-tagged RAF1 protein was incubated with the HTRF donor, anti-6His Tb Cryptate gold (Cisbio 61DB10RDF), and biotinylated RAS proteins were incubated with the HTRF acceptor, streptavidin-d2 (CisBio 610SADLA). The intensity of the fluorescence signal emitted is proportional to binding between the two proteins. The donor solution was prepared by mixing 16 nM His-tagged RAF1 in protein dilution buffer with 1:100 anti-6His Tb cryptate in PPI-Terbium detection buffer. 16 nM biotinylated RAS protein was diluted into protein dilution buffer (50 mM Tris-HCl pH 7.5, 150 mM NaCl, 0.1 mM MgCl2, 1 mM TCEP, 0.005% Tween20) and mixed with 1:2000 Streptavidin-d2 diluted in PPI-Terbium detection buffer (CisBio 61DB10RDF). 50× compound in DMSO was mixed with 16 nM KRAS-acceptor solution and incubated for 30 minutes at room temperature. After compound pre-incubation with KRAS, the RAF1 donor solution was added to the KRAS-acceptor solution and incubated for 1 hour at room temperature. The fluorescence signal emitted was monitored at 665 nm and 615 nm using an Envision multimode plate reader. The HTRF ratio (665/615) was calculated and normalized to 0% inhibition in the absence of compound and 100% inhibition in the presence of untagged RAF1 protein. […]

T1 sequence (P01116 2-169 isoform P01116-2 G12D): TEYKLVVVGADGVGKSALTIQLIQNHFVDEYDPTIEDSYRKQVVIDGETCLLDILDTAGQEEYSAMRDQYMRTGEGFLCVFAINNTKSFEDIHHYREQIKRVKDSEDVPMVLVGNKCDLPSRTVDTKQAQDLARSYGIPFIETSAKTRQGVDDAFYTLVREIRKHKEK

Structure (SMILES) | IC50 [1] [µM] | IC50 (KRAS G12D/RAF1) [µM]
O=C1NC(=O)C2(CCCN(c3nc(OC[C@@]45CCCN4C[C@H](F)C5)nc4c3COC3(CCc5ccc(O)cc53)C4)C2)N1 (mixture of isomers) [Compound 30, 9-[6′-hydroxy-2-[[rac-(2R,8S)-2-fluoro-1,2,3,5,6,7-hexahydropyrrolizin-8-yl]methoxy]spiro[5,8-dihydropyrano[4,3-d]pyrimidine-7,1′-indane]-4-yl]-1,3,9-triazaspiro[4.5]decane-2,4-dione] | 1 to 20 | > 100
C[C@@]1(O)CCCN(c2nc(OC[C@@]34CCCN3C[C@H](F)C4)nc3c2COC2(CCc4c(Cl)cccc42)C3)C1 (single isomer, unassigned) [Compound 23A, (3R)-1-[(7*)-4′-chloro-2-[[(2R,8S)-2-fluoro-1,2,3,5,6,7-hexahydropyrrolizin-8-yl]methoxy]spiro[5,8-dihydropyrano[4,3-d]pyrimidine-7,1′-indane]-4-yl]-3-methyl-piperidin-3-ol] | 0.1 to 1 | > 100
O=C1NC(=O)[C@]2(CCCN(c3nc(OC[C@@]45CCCN4C[C@H](F)C5)nc4c3COC3(CCCc5c(Cl)cc(O)cc53)C4)C2)N1 (single isomer, unassigned) [Compound 51B, (5R)-9-[(7*)-5′-chloro-2-[[(2R,8S)-2-fluoro-1,2,3,5,6,7-hexahydropyrrolizin-8-yl]methoxy]-7′-hydroxy-spiro[5,8-dihydropyrano[4,3-d]pyrimidine-7,1′-tetralin]-4-yl]-1,3,9-triazaspiro[4.5]decane-2,4-dione] | 0.01 to 0.1 | 10 to 100
CN(C)C(=O)c1nn2c(c1Cl)CN(c1nc(OC[C@@]34CCCN3C[C@H](F)C4)nc3c1CN(C)[C@]1(CCCc4ccccc41)C3)CCC2 (single isomer, unassigned) [Compound 64B] | 0.1 to 1 | > 100
F[C@H]1CN2CCC[C@@]2(COc2nc3c(c(N4C[C@H]5CC[C@@H](C4)N5)n2)COC2(C3)c3ccccc3-c3n[nH]cc32)C1 (stereo partly drawn) [Compound 3, 4′-[(1R,5S)-3,8-diazabicyclo[3.2.1]octan-3-yl]-2′-[[(2R,8S)-2-fluoro-1,2,3,5,6,7-hexahydropyrrolizin-8-yl]methoxy]spiro[2H-indeno[1,2-c]pyrazole-4,7′-5,8-dihydropyrano[4,3-d]pyrimidine]] | 1 to 20 | > 100
Nc1ccc2c(c1)C1(CCC2)Cc2nc(OC[C@@]34CCCN3C[C@H](F)C4)nc(N3CCCC(O)CC3)c2CO1 (stereo partly drawn) [Compound 13, 1-[7′-amino-2-[[(2R,8S)-2-fluoro-1,2,3,5,6,7-hexahydropyrrolizin-8-yl]methoxy]spiro[5,8-dihydropyrano[4,3-d]pyrimidine-7,1′-tetralin]-4-yl]azepan-4-ol] | 1 to 20 | 10 to 100
N#CCC1CCCN(c2nc(OC[C@@]34CCCN3C[C@H](F)C4)nc3c2COC2(CCc4c(Cl)cccc42)C3)CC1 (stereo partly drawn) [Compound 19, 2-(1-(4-chloro-2′-(((2R,7aS)-2-fluorotetrahydro-1H-pyrrolizin-7a(5H)-yl)methoxy)-2,3,5′,8′-tetrahydrospiro[indene-1,7′-pyrano[4,3-d]pyrimidin]-4′-yl)azepan-4-yl)acetonitrile] | 1 to 20 | > 100
N#Cc1ccc2c(c1)C1(CCC2)Cc2nc(OC[C@@]34CCCN3C[C@H](F)C4)nc(N3CCCCCC3)c2CO1 (stereo partly drawn) [Compound 20, 4-(azepan-1-yl)-2-[[(2R,8S)-2-fluoro-1,2,3,5,6,7-hexahydropyrrolizin-8-yl]methoxy]spiro[5,8-dihydropyrano[4,3-d]pyrimidine-7,4′-tetralin]-6′-carbonitrile] | 1 to 20 | > 100
F[C@H]1CN2CCC[C@@]2(COc2nc3c(c(N4CCCCCC4)n2)COC2(COCc4ccccc42)C3)C1 (stereo partly drawn) [Compound 25, 4-(azepan-1-yl)-2-[[(2R,8S)-2-fluoro-1,2,3,5,6,7-hexahydropyrrolizin-8-yl]methoxy]spiro[5,8-dihydropyrano[4,3-d]pyrimidine-7,4′-isochromane]] | 1 to 20 | > 100
CN(C)C(=O)c1cc2n(n1)CCCN(c1nc(OC[C@@]34CCCN3C[C@H](F)C4)nc3c1CO[C@]1(CCc4c(Cl)cccc41)C3)C2 [Compound 27A, 5-[(7S)-4′-chloro-2-[[(2R,8S)-2-fluoro-1,2,3,5,6,7-hexahydropyrrolizin-8-yl]methoxy]spiro[5,8-dihydropyrano[4,3-d]pyrimidine-7,1′-indane]-4-yl]-N,N-dimethyl-4,6,7,8-tetrahydropyrazolo[1,5-a][1,4]diazepine-2-carboxamide] | 0.1 to 1 | > 100
CONC(=O)c1cc2n(n1)CCCN(c1nc(OC[C@@]34CCCN3C[C@H](F)C4)nc3c1CO[C@@]1(CCc4c(Cl)cccc41)C3)C2 [Compound 31, N-methoxy-5-[(7S)-4′-chloro-2-[[(2R,8S)-2-fluoro-1,2,3,5,6,7-hexahydropyrrolizin-8-yl]methoxy]spiro[5,8-dihydropyrano[4,3-d]pyrimidine-7,1′-indane]-4-yl]-4,6,7,8-tetrahydropyrazolo[1,5-a][1,4]diazepine-2-carboxamide] | 0.01 to 0.1 | > 100
CN(C)C(=O)c1cc2n(n1)CCCN(c1nc(OC[C@@]34CCCN3C[C@H](F)C4)nc3c1COC1(CCc4ccc(O)cc41)C3)C2 (stereo partly drawn) [Compound 32] | 0.01 to 0.1 | > 100
